Bounds are passed on as bounds.

For the first test, the system named is HCT116 cells. Kind of test: Cell viability assay (CellTiter-Glo, 72 hours) in HCT116 human colorectal cancer cells. The format is cell-based. To be noted: Homo sapiens, HCT-116; Table 5; HCT116, 72 hours; read-out: Activity. Summed up: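 Ten-point IC50 came from an asymmetric five-parameter fit of luminescence corrected to vehicle wells. ATP content was measured by CellTiter-Glo 72 h after dosing at 37 °C. Cells were seeded at 2,000/well the day before, with 0.5% DMSO in all wells.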
As to `CCC/C=C/CN1C(=O)c2ccccc2Sc2cc(Nc3cc(C4CC4)ccn3)ccc21` [(E)-7-((4-Cyclopropylpyridin-2-yl)amino)-10-(hex-2-en-1-yl)dibenzo[b,f][1,4]thiazepin-11(10H)-one], the IC50 was 0.5 to 1 µM.
As to `CC#CCN1C(=O)c2ccccc2Cc2cc(Nc3nccnc3C#N)ccc21` [3-((5-(But-2-yn-1-yl)-6-oxo-6,11-dihydro-5H-dibenzo[b,e]azepin-2-yl)amino) pyrazine-2-carbonitrile], the IC50 is less than 0.5 µM.
Same read-out and setting: for `CC#CCN1C(=O)c2ccccc2Sc2cc(Nc3nc(C#N)ccc3C)ccc21` [6-((10-(But-2-yn-1-yl)-11-oxo-10,11-dihydrodibenzo[b,f][1,4]thiazepin-7-yl)amino)-5-methylpicolinonitrile] the value was less than 0.5 µM; for `CCC/C=C/CN1C(=O)c2ccccc2Sc2cc(Nc3cc(C(C)C)ccn3)ccc21` [(E)-10-(Hex-2-en-1-yl)-7-((4-isopropylpyridin-2-yl)amino)dibenzo[b,f][1,4]thiazepin-11 (10H)-one], less than 0.5 µM.
Regarding `CCC/C=C/CN1C(=O)c2ccccc2Sc2cc(Nc3ncc(C)cc3C)ccc21` [(E)-7-((3,5-Dimethylpyridin-2-yl)amino)-10-(hex-2-en-1-yl)dibenzo[b,f][1,4]thiazepin-11 (10H)-one], the IC50 was less than 0.5 µM.
The same measure, in the same setting: for `CC#CCN1C(=O)c2ccccc2Sc2cc(Nc3ccncc3)ccc21` [10-(But-2-yn-1-yl)-7-(pyridin-4-ylamino)dibenzo[b,f][1,4]thiazepin-11 (10H)-one] the value was less than 0.5 µM.

Still in this test, the particulars now being: Homo sapiens, HCT-116; Table 6; HCT116, 72 hours; read-out: Activity.
On to `CC#CCN1C(=O)c2ccccc2Sc2cc(NC3CC(COC)C3)cnc21` (stereo not drawn) [Table 6: —CH2CCMe; 3-MeOCH2-cBu; CH/N; S, 11-(But-2-yn-1-yl)-3-((3-(methoxymethyl)cyclobutyl)amino)benzo[f]pyrido[3,2-b][1,4]thiazepin-10(11H)-one], for which the IC50 was less than 0.5 µM.
As for `CC#CCN1C(=O)c2ccccc2Sc2cc(NC3CCOC3)ccc21` (stereo not drawn) [10-(But-2-yn-1-yl)-7-((tetrahydrofuran-3-yl)amino)dibenzo[b,f][1,4]thiazepin-11 (10H)-one], the IC50 was less than 0.5 µM.
As to `CC#CCN1C(=O)c2ccccc2Sc2cc(NC3CC4CCC3C4)ccc21` (stereo not drawn) [7-(Bicyclo[2.2.1]heptan-2-ylamino)-10-(but-2-yn-1-yl)dibenzo[b,f][1,4]thiazepin-11 (10H)-one], the IC50 was less than 0.5 µM.

The test is the same for the next values; noted with them: Table 3; HCT116, 72 hours; read-out: Activity.
Take `CC#CCN1C(=O)c2ccccc2Sc2cc(NC(=O)NC34CC(OC)(C3)C4)ccc21`: the IC50 is less than 0.5 µM.
Take `CC#CCN1C(=O)c2ccccc2Sc2cc(NC(=O)Nc3ccc4oc(=O)n(C)c4c3)ccc21`: the IC50 is less than 0.5 µM.
In the case of `CC#CCN1C(=O)c2ccccc2Sc2cc(NC(=O)N[C@H]3C[C@H](O)C3)cnc21` [Table 3: —CH2CCMe; trans-3-OH-cBu; CH/N], the IC50 was less than 0.5 µM.
`CC#CCN1C(=O)c2ccccc2Sc2cc(NC(=O)NC34CC(OC)(C3)C4)cnc21`: the IC50 was less than 0.5 µM.

Still in this test, the particulars now being: Table 5; HCT116, 72 hours; read-out: Activity.
As for `C#CCN1C(=O)c2ccccc2Sc2cc(Nc3ncc(C)cc3C)cnc21`, the IC50 was less than 0.5 µM.
Turning to `CC#CCN1C(=O)c2ccccc2Sc2cc(Nc3ncccc3C#N)cnc21`, the IC50 was less than 0.5 µM.
For the molecule `Cc1cnc(Nc2ccc3c(c2)Sc2ccccc2C(=O)N3CC#CCl)c(C)c1`, the IC50 was less than 0.5 µM.
For `Cc1ccc(F)c(Nc2cnc3c(c2)Sc2ccccc2C(=O)N3CC#CCl)n1`, the IC50 is less than 0.5 µM.
Regarding `CC#CCN1C(=O)c2ccccc2Sc2cc(Nc3ncc(C#N)cc3C)cnc21`, the IC50 is less than 0.5 µM.
With `C#CCN1C(=O)c2ccccc2Sc2cc(Nc3ncc(C)cc3C)ccc21`, the IC50 is less than 0.5 µM.

Staying with this test, now noted: Table 6; HCT116, 72 hours; read-out: Activity.
Regarding `CC#CCN1C(=O)c2ccccc2Cc2cc(NC3COC3)ccc21`, the IC50 was less than 0.5 µM.

Staying with this test, now noted: Table 7; cell viability assay, CellTiter-Glo, 72 hours; scaffold drawing 42 with R^2, R^3, X/Y, Z; read-out: Activity.
With `COCCN1C(=O)c2ccccc2Sc2cc(NC(=O)c3ncccn3)ccc21` [—(CH2)2OMe; pyrimidin-2-yl; CH/CH; S], the IC50 lay in the range of 1 to 5 µM.
Regarding `COCCN1C(=O)c2ccccc2Sc2cc(NC(=O)c3ccc(F)cc3)ccc21` [—(CH2)2OMe; 4-FPh; CH/CH; S], the IC50 is 1 to 5 µM.
Turning to `COCCN1C(=O)c2ccccc2Sc2cc(NC(=O)c3ccncn3)ccc21` [—(CH2)2OMe; pyrimidin-4-yl; CH/CH; S], the IC50 was 1 to 5 µM.
The same measure, in the same setting: the same measure for `C=CCN1C(=O)c2ccccc2Sc2cc(NC(=O)c3ccoc3)ccc21` [—CH2CH═CH2; furan-3-yl; CH/CH; S]: less than 0.5 µM; for `COCCN1C(=O)c2ccccc2Sc2cc(NC(=O)c3ccc(OCF)cc3)ccc21` [—(CH2)2OMe; 4-FH2COPh; CH/CH; S]: less than 0.5 µM.
For the molecule `O=C(Nc1ccc2c(c1)Sc1ccccc1C(=O)N2CCO)c1ccoc1` [—(CH2)2OH; furan-3-yl; CH/CH; S], the IC50 lay within 1 to 5 µM.
For the molecule `COCCN1C(=O)c2ccccc2Sc2cc(NC(=O)C3CCCCCC3)ccc21` [—(CH2)2OMe; cHeptyl; CH/CH; S], the IC50 was in the range of 1 to 5 µM.

The test is the same for the next values; noted with them: Table 8; analogs of scaffold drawing 43 defined by R^2, R^3, X/Y, W; read-out: Activity (IC50 class, cell viability assay).
On to `CC#CCN1C(=O)c2cc(F)ccc2Sc2cc(NC(=O)OCCOC)ccc21` [—CH2CCMe; O(CH2)2OMe; CH/CF; CH], for which the IC50 is less than 0.5 µM.
Regarding `CON=C1CC2(C1)CC(C(=O)Nc1ccc3c(c1)Sc1ccc(F)cc1C(=O)N3CC#CC1CC1)C2` (stereo not drawn), the IC50 was less than 0.5 µM.
Still for that read-out and setting: the same measure for `O=C(CCCO)Nc1cnc2c(c1)Sc1ccccc1C(=O)N2CC#CC1CC1` [—CH2CC^cPr; (CH2)3OH; CH/CH; N]: less than 0.5 µM; for `CC#CCN1C(=O)c2ccccc2Sc2cc(NC(=O)c3ccc4oc(=O)n(C)c4c3)cnc21`: less than 0.5 µM; for `CC#CCN1C(=O)c2cc(F)ccc2Sc2cc(NC(=O)C=CCOC)cnc21` [—CH2CCMe; CH—═CHCH2OMe; CH/CF; N]: less than 0.5 µM.
As for `O=C(Nc1cnc2c(c1)Sc1ccccc1C(=O)N2CC#CC1CC1)[C@@H]1C[C@H]1CO` (relative stereo) [—CH2CC^cPr; trans-2-HOCH2-cPr; CH/CH; N], the IC50 is less than 0.5 µM.
Consider `CC#CCN1C(=O)c2cc(F)ccc2Sc2cc(NC(=O)C=CCOC)ccc21` [—CH2CCMe; CH—═CHCH2OMe; CH/CF; CH], for which the IC50 was less than 0.5 µM.
Take `CC#CCN1C(=O)c2ccccc2Sc2cc(NC(=O)c3cccc(C(=O)N(C)C)c3)ccc21` [—CH2CCMe; 3-Me2NC(O)Ph; CH/CH; CH]: the IC50 is less than 0.5 µM.
Regarding `CC#CCN1C(=O)c2ccccc2Sc2cc(NC(=O)C3CC4(CC(=O)C4)C3)ccc21`, the IC50 is less than 0.5 µM.
On to `CC#CCN1C(=O)c2ccc(F)cc2Sc2cc(NC(=O)c3ccc4scnc4c3)ccc21`, for which the IC50 was less than 0.5 µM.
`CC#CCN1C(=O)c2ccc(Cl)cc2Sc2cc(NC(=O)[C@H]3C[C@@H](O)C3)ccc21` [—CH2CCMe; cis-3-OH-cBu; CCI/CH; CH]: the IC50 is less than 0.5 µM.
Take `CC#CCN1C(=O)c2ccc(Cl)cc2Sc2cc(NC(=O)C3CC3CO)cnc21` (racemic) [—CH2CCMe; trans-2-HOCH2-cPr; CCI/CH; N]: the IC50 is less than 0.5 µM.
As to `CC#CCN1C(=O)c2ccccc2Sc2cc(NC(=O)c3cccc(CCC#N)c3)ccc21` [—CH2CCMe; 3-(2′-CNEt)Ph; CH/CH; CH], the IC50 was less than 0.5 µM.
As to `CC#CCN1C(=O)c2ccccc2Sc2cc(NC(=O)C34CC(C3)C4)ccc21`, the IC50 is less than 0.5 µM.
On to `CC#CCN1C(=O)c2ccccc2Sc2cc(NC(=O)C3CCC3)ccc21` [—CH2CCMe; cBu; CH/CH; CH], for which the IC50 is less than 0.5 µM.
As for `CC#CCN1C(=O)c2cc(F)ccc2Sc2cc(NC(=O)[C@H]3C[C@@H](OC)C3)ccc21` [—CH2CCMe; cis-3-MeOcBu; CH/CF; CH], the IC50 is less than 0.5 µM.
As to `CC#CCN1C(=O)c2ccc(Cl)cc2Sc2cc(NC(=O)NCCOC)ccc21` [—CH2CCMe; NH(CH2)2OMe; CCl/CH; CH], the IC50 is less than 0.5 µM.
Consider `CC#CCN1C(=O)c2ccc(F)cc2Sc2cc(NC(=O)c3ccc(OCF)cc3)ccc21` [—CH2CCMe; 4-FH2COPh; CF/CH; CH], for which the IC50 is less than 0.5 µM.
Regarding `CC#CCN1C(=O)c2ccccc2Sc2cc(NC(=O)c3cccc(OC)c3)ccc21` [—CH2CCMe; 3-MeOPh; CH/CH; CH], the IC50 was less than 0.5 µM.
For the molecule `O=C(CC1COC1)Nc1cnc2c(c1)Sc1ccccc1C(=O)N2CC#CC1CC1` [—CH2CC^cPr; (oxetan-3-yl)CH2; CH/CH; N], the IC50 was less than 0.5 µM.
For the molecule `C#CCN1C(=O)c2ccc(Cl)cc2Sc2cc(NC(=O)C3CC4(CC(=NO)C4)C3)ccc21` (stereo not drawn), the IC50 was less than 0.5 µM.
As for `CC#CCN1C(=O)c2ccc(F)cc2Sc2cc(NC(=O)CC3COC3)ccc21` [—CH2CCMe; (oxetan-3-yl)CH2; CF/CH; CH], the IC50 was less than 0.5 µM.
Same read-out and setting: the same measure for `CC#CCN1C(=O)c2ccccc2Sc2cc(NC(=O)C#CC)ccc21` [—CH2CCMe; CCMe; CH/CH; CH]: less than 0.5 µM.

The test is the same for the next values; noted with them: Table 9; HCT116, 72 hours; read-out: Activity.
In the case of `COC1CC(C(=O)Nc2ccc3c(c2)C(C#N)c2ccccc2C(=O)N3CC#CC2CC2)C1` (stereo not drawn) [Table 9: —CH2CC°Pr; trans-3-MeOcBu; CHCN], the IC50 is less than 0.5 µM.
As for `C#CCN1C(=O)c2ccccc2C(C#N)c2cc(NC(=O)[C@H]3C[C@H](OC)C3)ccc21` (stereo partly drawn) [Table 9: —CH2CCH; trans-3-MeOcBu; CHCN], the IC50 is less than 0.5 µM.
On to `CC1c2ccccc2C(=O)N(CC#CC2CC2)c2ccc(NC(=O)CC3COC3)cc21` (stereo not drawn), for which the IC50 was less than 0.5 µM.
With `CC#CCN1C(=O)c2ccccc2C(C)c2cc(NC(=O)CCCOC)ccc21` (stereo not drawn) [Table 9: —CH2CCMe; (CH2)3OMe; CHMe], the IC50 is less than 0.5 µM.
`COCC1CC(C(=O)Nc2ccc3c(c2)C(C)(O)c2ccccc2C(=O)N3CC#CCl)C1` (stereo not drawn) [Table 9: —CH2CCCl; 3-MeOCH2-cBu; CMeOH]: the IC50 was less than 0.5 µM.
Take `CC#CCN1C(=O)c2ccccc2C(C)(O)c2cc(NC(=O)[C@H]3C[C@@H](OC)C3)ccc21` (stereo partly drawn) [Table 9: —CH2CCMe; cis-3-MeOcBu; CMeOH]: the IC50 is less than 0.5 µM.
Same read-out and setting: the same measure for `CO[C@H]1C[C@@H](C(=O)Nc2ccc3c(c2)Cc2ccccc2C(=O)N3CC#CC2CC2)C1` [Table 9: —CH2CCCPr; cis-3-MeOcBu; CH2]: less than 0.5 µM.

Source of the values: patent US20260097047A1, “Small molecule inhibitors of the ribosome biogenesis factor NVL2” (Board of Regents, The University of Texas System, priority 2023, published 2026).
